Results from patent US10450615B2, “Methods and compositions for detecting gastrointestinal and other cancers” (Case Western Reserve University, priority 2003, dated 2019).

System: vimentin gene expression in colon cancer cell lines
Experiment: RT-PCR of vimentin expression in colon cancer cell lines after 5-azacytidine treatment
Type: cell-based, human
Settings: FIG. 2, cell lines with vimentin DNA methylation, optimal tolerated doses ranging from 1 μg/ml to 3 μg/ml, reactivated in V400, V429, V503, RCA, V5, RKO, V432, V703, V457
Method: The cultures were grown and treated as described previously (Veigl, et al., 1998, Proc. Natl. Acad. Sci. USA, 95:8698-8702). The optimal tolerated doses were determined for each treated line, and two doses were used for some lines, ranging from 1 μg/ml to 3 μg/ml.
To establish that methylation was responsible for silencing vimentin gene expression, cell lines with vimentin DNA methylation were treated with 5-azacytidine (5-azaC), a demethylating agent.

SMILES: Nc1ncn([C@@H]2O[C@H](CO)[C@@H](O)[C@H]2O)c(=O)n1 [5-azaC, 5-azacytidine]
- colon cancer cell lines in which vimentin expression was reactivated (induced): 9 of 12
